Data on four molecules can be found in US20060115895A1, “Fish disease models and uses thereof” (priority 2002, published 2006).

For series [1], the system named is epilepsy induced in the fish. As to the kind of experiment: anti-seizure effect in fish with induced epilepsy. The format is in vivo. As to conditions: concentration in fish water.
From the text: Continuing with the example of epilepsy by way of illustration, in embodiments of this aspect of the present invention a known drug may be administered to the fish, for example sodium valproate. Epilepsy is then induced in the fish. Additional test substances, such as candidate chemicals, or genetic mutation may then be applied to the fish and assessed for their anti-epileptogenic effect. […] Any combination of these and/or other drugs or test substances may be arrayed in every possible combination and tested for synergistic efficacy. Appropriate doses vary from 1 nM to 100 mM, e.g. 0.1 μM to 10 mM, with 100 uM being a reasonable starting concentration to assess.
In series [2] the test system is interleukin 11 transgene (tetracycline inducible system). As to conditions: mouse, in vivo; cited from earlier work.
Series [3] concerns zebrafish of tup background. As to the kind of experiment: DMSO tolerance of zebrafish. The format is in vivo. The procedure: Zebrafish of tup background were tested in batches of 10. DMSO was added to fish water on day 3 and fish examined daily up to day 9. […] Motoric behaviour was also normal.
In series [4] the test system is fish reared in nicotine. As to conditions: for fish attracted to nicotine impregnated methyl cellulose: previously bathed at 5 ug/ml, 5 fish per group; for response/preference to nicotine: challenged 8 d.p.f. with 2.5 ug/ml nicotine in 3% methyl cellulose. The procedure:
(§1) Fish were reared in nicotine from 2 dpf (immediately after hatching) to 7 d.p.f. at concentrations (in the fish water) of 0.5, 2.5, 5, 25, 50 ug/ml (5 fish per test group). The nicotine medium was then removed and replaced with E3M (embryo medium) at 7 d.p.f. They were then challenged at 8 d.p.f. with 2.5 ug/ml nicotine in 3% methyl cellulose.

The subject of series [5] is fish reared in nicotine. The procedure: as §1
Details of the toxicity dose/response experiment are given below: […]

Setting [6] is: 1% DMSO (10 ul/ml), added day 3, examined daily up to day 9.

SMILES strings stand for the structures. Where two headings read alike, the source gives them in different places.

As for `CN1C(=O)CN=C(c2ccccc2)c2cc(Cl)ccc21` [diazepam], the “concentration showing therapeutic effects in monotherapy” value in series [1] was 35 µM.
On to `C[C@H]1c2cccc(O)c2C(=O)C2=C(O)[C@]3(O)C(=O)C(C(N)=O)=C(O)[C@@H](N(C)C)[C@@H]3[C@@H](O)[C@@H]21` [doxycycline], for which, in series [2], the “toxicity to embryos treated in utero, pups or adults” value is “no apparent toxicity”.
`C[S+](C)[O-]` [DMSO, dimethyl sulphoxide]: in series [3] (setting [6]), the “abnormality on detailed examination under dissecting microscope” value is on record as “no abnormality was detected” and the motoric behaviour entry is recorded as “normal”. For the same molecule, in series [3] (final concentration in fish water), the “DMSO concentration zebrafish can tolerate” value turned out to be 1%.
In the case of `CN1CCCC1c1cccnc1` (stereo not shown) [nicotine], the toxicity entry in the series on fish reared in nicotine [4] (25 ug/ml in fish water from 2 dpf) and with fish reared in nicotine [4] (50 ug/ml in fish water from 2 dpf) was “Toxicity was seen” each time. In addition, the “fish attracted to nicotine impregnated methyl cellulose” value is reported as 2 fish with fish reared in nicotine [4] (by 4 mins), 3 fish in the series with fish reared in nicotine [4] (by 5 mins) and 4 fish in the series with fish reared in nicotine [4] (by 15 mins). The response/preference to nicotine result with fish reared in nicotine [4] (previously bathed in 0.5 ug/ml) and in the series on fish reared in nicotine [4] (previously bathed in 2.5 ug/ml) was “no response/preference” in each case. The “escape response when prodded” value with fish reared in nicotine [5] (0.5 ug/ml, 3 d.p.f.) is “escape response as above”; in the series with fish reared in nicotine [5] (0.5 ug/ml, 4 d.p.f.), “escape response as above”; in the series with fish reared in nicotine [5] (2.5 ug/ml, 3 d.p.f.) it was “escape response as above”; in the series on fish reared in nicotine [5] (2.5 ug/ml, 4 d.p.f.), “escape response as above”; in the series on fish reared in nicotine [5] (5.0 ug/ml, 3 d.p.f.) it was “escape response as above”; in the series with fish reared in nicotine [5] (5.0 ug/ml, 4 d.p.f.), “escape response as above”. Further, the “escape response when prodded” value in the series with fish reared in nicotine [5] (25 ug/ml, 3 d.p.f.) is on record as “twitch but no escape response when prodded”; with fish reared in nicotine [5] (25 ug/ml, 4 d.p.f.) it was “twitch but no escape response when prodded”; in the series with fish reared in nicotine [5] (50 ug/ml, 3 d.p.f.), “twitch but no escape response when prodded”. Besides, the survival entry is listed as “all alive” in the series on fish reared in nicotine [5] (0.5 ug/ml, 3 d.p.f.); “all alive” in the series with fish reared in nicotine [5] (0.5 ug/ml, 4 d.p.f.); “all alive” with fish reared in nicotine [5] (2.5 ug/ml, 3 d.p.f.); “all alive” in the series with fish reared in nicotine [5] (2.5 ug/ml, 4 d.p.f.); “all alive” with fish reared in nicotine [5] (5.0 ug/ml, 3 d.p.f.); “all alive” with fish reared in nicotine [5] (5.0 ug/ml, 4 d.p.f.). The survival result with fish reared in nicotine [5] (25 ug/ml, 3 d.p.f.) was “all alive”; in the series on fish reared in nicotine [5] (25 ug/ml, 4 d.p.f., 5 fish per group), 4 dead, 1 alive; in the series with fish reared in nicotine [5] (50 ug/ml, 3 d.p.f.) it was “all alive”; in the series on fish reared in nicotine [5] (50 ug/ml, 4 d.p.f.), “all, dead”.
